Data on 1 compound can be found in ChEMBL document CHEMBL4414661, “Trikoramide A, a Prenylated Cyanobactin from the Marine Cyanobacterium Symploca hydnoides” (J Nat Prod, 2019).

For assay [1], the system named is OCI-AML2. The assay can be described thus: Cytotoxicity against human OCI-AML2 cells measured after 24 hrs by MTT assay. It is filed as functional, cell-based. To be noted: OCI-AML2, 24 h.
The nature of assay [2]: Inhibition of quorum sensing system in Pseudomonas aeruginosa PAO1 transfected with lasB-GFP at 10 uM by measuring reduction in fluorescence intensity up to 16 hrs by fluorescence assay relative to control.
The test system of assay [3] is MOLT-4. Nature of the assay: Cytotoxicity against human MOLT4 cells measured after 24 hrs by MTT assay. The assay is classed as functional, cell-based. The settings on record: MOLT-4, 24 h.
The test system of assay [4] is Staphylococcus aureus. The assay can be described thus: Antibacterial activity against methicillin-resistant Staphylococcus aureus assessed as bacterial growth inhibition at 100 uM measured after 16 hrs by microplate reader assay. The assay is classed as functional, organism-based.
The subject of assay [5] is MCF7. The assay can be described thus: Cytotoxicity against human MCF7 cells measured after 24 hrs by MTT assay. It is filed as functional, cell-based. To be noted: MCF7, 24 h.
The test system of assay [6] is Klebsiella pneumoniae. Nature of the assay: Antibacterial activity against Klebsiella pneumoniae assessed as bacterial growth inhibition at 100 uM measured after 16 hrs by microplate reader assay. The assay is classed as functional, organism-based.
Assay [7] relates to Escherichia coli. Nature of the assay: Antibacterial activity against Escherichia coli assessed as bacterial growth inhibition at 100 uM measured after 16 hrs by microplate reader assay. The assay is classed as functional, organism-based.

Active and inactive are the calls of the source. The rule behind the calls is not given here. Numbered stars: 1 amine (or outer) side, 2 acyl side, 3 side chain; on linkers, the order of the positions; unused ones are H or OH. Square brackets hold non-standard residues; d marks the D form. Peptide text beside a SMILES is read from it. X1 = CC(C)=CC[C@@]12C[C@@H](C(=O)[*:2])N([*:1])[C@@H]1Nc1ccccc12

For `CC(C)=CC[C@@]12C[C@H]3C(=O)N[C@@H](CC(C)C)C(=O)N[C@@H](Cc4ccccc4)C(=O)N4CCC[C@H]4C(=O)N[C@@H](CC(C)C)C(=O)N4CCC[C@H]4C(=O)N[C@@H](CC(C)C)C(=O)N4CCC[C@H]4C(=O)N[C@@H](C(C)C)C(=O)N4CCC[C@H]4C(=O)N3[C@@H]1Nc1ccccc12` (cyclo(FPLPLPVP[X1]L)), the IC50 turned out to be 8.2 µM in assay [1], 5.75 µM in assay [3] and 19 µM in assay [5]. The compound further had an inhibition in assay [2] of 26%. Further, the outcome in assay [4], in assay [6] and in assay [7] was inactive.
